Reference: patent US20170304396A1, “AQUEOUS SOLUTION FORMULATIONS OF VANCOMYCIN” (priority 2015, published 2017)
Converted amounts (≈) assume the structure as drawn. Counter-ions that a name gives are not always drawn.

Assays:
[1] = assay type: physicochemical
Method: The aim of this study was to compare effects of various ingredients on vancomycin stability in a solution in order to identify a stabilizer that can slow the degradation of vancomycin in solution. Each solution sample (coded with an F-#) was prepared by dissolving vancomycin HCl to 1% concentration, along with stabilizer added at the concentrations listed in the Table below. Each solution was adjusted to about pH 4.7 and stored at 2-8° C. and 50° C. for 2 days. The stability of vancomycin was indicated by vancomycin recovery (% over the initial concentration) after storage at a selected temperature. The concentration of vancomycin or vancomycin assay was measured using HPLC method (USP Vancomycin Assay method). The relative stability of vancomycin in each solution was expressed in vancomycin concentration or assay recovery (% over the initial concentration).
The aim of this study was to compare various amino acids, including tryptophan, on their effects on vancomycin stability in an aqueous solution. The solution samples were prepared and tested similarly to Example 2.
The solution samples were prepared and tested in a similar way as in Example 2. The test sample compositions and test results are shown in the Table below and the effects of tryptophan concentration on vancomycin stability are depicted graphically in FIG. 4.

S. aureus ATCC 25923 = assay: Minimum Inhibitory Concentration (CLSI); assay type: cell-based; details: Example 11
From the text: (§1) Standards for this method are outlined by the Clinical and Laboratory Standards Institute (CLSI). The table below describes the vancomycin solution composition used to test antibiotic potency:
(§2) Standards for this method are outlined by the Clinical and Laboratory Standards Institute (CLSI).

E. faecalis ATCC 29212 = assay: Minimum Inhibitory Concentration (CLSI); assay type: cell-based; details: Example 11
From the text: as §1, §2

Solubility in water = assay type: physicochemical; details: for solubility: water
physchem = assay: physchem
From the text: As used herein, “molecular complex” means a special interaction between two molecules that are not covalently bonded. […] One of the methods to detect molecular complex formation is the phase solubility diagram which measures changes in solubility of one molecule (“substrate”) as a function of the other molecule (“complexing agent”) (T. Higuchi and J. L. Lach, J. Am. Pharm. Assoc., Sci. Ed. 43, 349, 525, 527, 1954).
In addition, this study intended to determine the stoichiometric ratio of such molecular complex formed. To obtain a phase solubility diagram of tryptophan, pre-calculated amounts of tryptophan, vancomycin and water were added into a plastic tube to form a suspension in which vancomycin was completed dissolved but tryptophan was not completed dissolved, the suspension was adjusted to pH 6.2, mixed at room temperature (RT) overnight to reach dissolution/re-crystallization equilibrium, and then filtered through a 0.2-micorn filter membrane. The filtrate was diluted and analyzed by HPLC (using the USP HPLC vancomycin assay method) to determine the concentrations of tryptophan and vancomycin. The solubility of tryptophan measured and the concentration of vancomycin added measured in each suspension sample are provided in the Table below: […]

[2] = Merck Index (12th edition); cited from earlier work

CC(=O)N[C@@H](Cc1c[nH]c2ccccc12)C(=O)O [N-acetyl-tryptophan]
effect of additive on vancomycin stability in solution [1]: capable of slowing down the degradation of vancomycin in solution

N[C@@H](Cc1c[nH]c2ccccc12)C(=O)O [tryptophan]
effect of addition of tryptophan on the MIC of vancomycin (S. aureus ATCC 25923): does not affect the MIC of vancomycin | effect of addition of tryptophan on the MIC of vancomycin (E. faecalis ATCC 29212): does not affect the MIC of vancomycin | solubility (Solubility in water; without vancomycin, read-out: tryptophan solubility in water): ~14 mg/mL (≈ 68.6 mM) | effect of additive on vancomycin stability in solution [1]: capable of slowing down the degradation of vancomycin in solution | effect of amino acid on vancomycin stability in solution [1]: capable of slowing down the degradation of vancomycin | effect of tryptophan concentration on vancomycin stability in solution [1]: improves vancomycin stability in a concentration-dependent fashion | tryptophan solubility (physchem; pH 6.2): 2.2% | tryptophan solubility (estimated) (physchem; pH 6.2): ~2.5% | solubility (physchem; pH 6.2, aqueous buffer, thermodynamic from solid): ~70 mM (≈ 14.3 mg/mL)

CN[C@H](CC(C)C)C(=O)N[C@H]1C(=O)N[C@@H](CC(N)=O)C(=O)N[C@H]2C(=O)N[C@H]3C(=O)N[C@H](C(=O)N[C@H](C(=O)O)c4cc(O)cc(O)c4-c4cc3ccc4O)[C@H](O)c3ccc(c(Cl)c3)Oc3cc2cc(c3O[C@@H]2O[C@H](CO)[C@@H](O)[C@H](O)[C@H]2O[C@H]2C[C@](C)(N)[C@H](O)[C@H](C)O2)Oc2ccc(cc2Cl)[C@H]1O [vancomycin hydrochloride]
solubility of vancomycin hydrochloride in water [2]: > 10 % w/v

CN[C@H](CC(C)C)C(=O)N[C@H]1C(=O)N[C@@H](CC(N)=O)C(=O)N[C@H]2C(=O)N[C@H]3C(=O)N[C@H](C(=O)N[C@H](C(=O)O)c4cc(O)cc(O)c4-c4cc3ccc4O)[C@H](O)c3ccc(c(Cl)c3)Oc3cc2cc(c3O[C@@H]2O[C@H](CO)[C@@H](O)[C@H](O)[C@H]2O[C@H]2C[C@](C)(N)[C@H](O)[C@H](C)O2)Oc2ccc(cc2Cl)[C@H]1O [vancomycin]
vancomycin solubility limit in water (Solubility in water): about 12 % w/v | solubility (Solubility in water; read-out: vancomycin solubility limit in water): ~120 mg/mL (≈ 82.8 mM)
